Patent US20160374979A1, “Method of Treatment of Alopecia with Monoterpenoids” (CELLMID LIMITED, priority 2013, published 2016)

Columns and labels:
[1] = system: alopecia patients; conditions: cited from earlier work
[2] = system: murine vibrissae follicles; assay: Hair shaft elongation of murine vibrissae follicles cultured ex vivo; parameters: species or system C3H mice; conditions: exogenous FGF-5 300 ng/mL, 8 days, versus control (FIGS. 20 and 21)
Text: Five week old male C3H mice (supplied by Japan SLC, lnc., Hamamatsu, Japan) were used for isolation of vibrissae follicles. The mice were sacrificed and the vibrissae follicles were carefully dissected from the mystacial pad. Briefly, the mystacial pad was cut into two sides (left and right). The skin cut, picked at the edge by tweezers, was washed in (i) 70% Ethanol for 30 seconds, (ii) PBS for 10 seconds, (iii) fresh PBS for 10 seconds, and (iv) another fresh PBS for 10 seconds. This washing process was repeated twice. After washing, the skin cut was placed inverted to expose the vibrissae follicles in Dulbecco's Modified Eagle's Medium (DMEM; Wako Pure Chemical, Osaka, Japan) at 37° C. Under a dissecting microscope, the surrounding tissue was removed from the follicles using tweezers, carefully so as not to destroy the structure of the follicles. The isolated follicles were then placed immediately into Williams' E medium (Life Technologies, Carlsbad, USA).
From the isolated mouse vibrissae follicles, only early anagen follicles were selected and randomized into groups with 30 follicles per group. […]
Follicles in each of the treatment and control groups were incubated at 37° C. at 5% CO2 for 8 days, while exchanging the respective culture mediums every 2 days. From Day 1, elongation of hair shafts was observed and the elongation length was measured for each hair shaft every 24 hours from Day 1 to Day 8 using a micrometer under microscope. […]
Follicles in each of the treatment and control groups were incubated at 37° C. at 5% CO2 for 5 days, while exchanging the culture medium every 3 days. From Day 1, elongation of hair shafts was observed and the elongation length was measured for each hair shaft every 24 hours from Day 1 to Day 5. using a micrometer under microscope. […]

Nc1cc(N2CCCCC2)nc(N)[n+]1[O-] [Minoxidil]
patients with irritation of the scalp (dryness, scaling, itching, redness) ([1]; 2% solution): approximately 7%

CC(C)(C)NC(=O)[C@H]1CC[C@H]2[C@@H]3CC[C@H]4NC(=O)C=C[C@]4(C)[C@H]3CC[C@]12C [finasteride, Finasteride]
balding male recipients with poor or no response ([1]; finasteride treatment): ≥ 35%

B1: FGF-5: FGF-5 protein (R&D Systems) added to follicle culture medium at 300 ng/mL (protein, UniProt P12034 21-268, looked up)
Fibroblast growth factor 5: HGEKRLAPKGQPGPAATDRNPRGSSSRQSSSSAMSSSSASSSPAASLGSQGSGLEQSSFQWSPSGRRTGSLYCRVGIGFHLQIYPDGKVNGSHEANMLSVLEIFAVSQGIVGIRGVFSNKFLAMSKKGKLHASAKFTDDCKFRERFQENSYNTYASAIHRTEKTGREWYVALNKRGKAKRGCSPRVKPQHISTHFLPRFKQSEQPELSFTVTVPEKKKPPSPIKPKIPLSAPRKNTNSVKYRLKFRFG
rate of hair shaft elongation [2]: slow the rate of hair shaft elongation over time
